Source: patent US8966812B2, “Trap for bed bugs and the like” (Susan McKnight, Inc., priority 2007, dated 2015)

Experiments:
Type in all cases: in vivo, cimex lectularius
[1] = system: bed bugs; experiment: Example 3: carbon dioxide synergism with experimental lure composition, climb-up pitfall trap in infested apartment building, 14 days
Procedure: A molded polypropylene dog dish was turned upside down to form the climb-up pitfall trap 1 as described in Example 2. The trap 1 was positioned on the floor of an apartment building known to be infested by bed bugs, and was tested without any lure. This served as the control test illustrated as Test 6 in FIG. 7. The trap was loaded with a heat blanket (heat source 8). The heat blanket generated temperatures of 44.8 to 47.3 degrees Celsius (112.6 to 117.1 degrees Fahrenheit). The trap 1 with heat source 8 was tested with results shown as Test 2 in FIG. 7. The trap was then loaded with a flexible tube connected to a 5 lbs. compressed carbon dioxide cylinder (carbon dioxide source 9). The carbon cylinder emitted 500 ml/min of carbon dioxide through a tube to the area over the center stage 7 of the trap. The trap with carbon dioxide source 9 was tested with the results shown as Test 4 in FIG. 7. The trap was then loaded with an experimental lure comprising: 100 micrograms of L-lactic acid, 33 micrograms of propionic acid, 0.33 micrograms of butyric acid, 0.33 micrograms of valeric acid and 100 micrograms of octenol (i.e., “lure composition 10”), the experimental lure being combined in a fragrance releasing gel. The trap with experimental lure (lure composition 10) was tested with the results indicated in Test 5 of FIG. 7. […]

[2] = system: bed bugs; experiment: Example 2: climb-up pitfall trap with heat source and lures incl. experimental lure composition, infested apartment building, 14 days; conditions: trap with heat source plus lure, tested several times for 14 days, FIG. 6
Description: A molded polypropylene dog dish was turned upside down to form climb-up pitfall trap 1 as described in Example 1. The exterior surface 2 was covered with Pellon® featherweight fusible interfacing to form a climbing surface. […] The trap 1 was positioned on the floor of an apartment building known to be infested by bed bugs. As indicated in the bar chart of FIG. 6, the trap 1 was loaded with a heat blanket (heat source 8). The heat blanket generated temperatures of 44.8 to 47.3 degrees Celsius (112.6 to 117.1 degrees Fahrenheit). The trap with heat source 8 was tested several times for 14 days with a modest mean trap count. This test served as a control test. The trap was then loaded with an octenol lure without L-lactic acid. The heat blanket again generated heat. […] The trap was then loaded with an octenol and L-lactic acid lure, in place of the octenol lure. The heat blanket again generated heat. […] The trap was then loaded with an experimental lure consisting of a combination of 100 micrograms of L-lactic acid, 33 micrograms of propionic acid, 0.33 micrograms of butyric acid, 0.33 micrograms of valeric acid and 100 micrograms of octenol (lure composition 10), the experimental lure being combined in a fragrance releasing gel. The heat blanket again generated heat. […]

[3] = system: bed bugs; experiment: Example 1: climb-up pitfall trap with heat source and lures in an infested apartment building, 14 days; conditions: trap with heat source 44.8 to 47.3 degrees Celsius plus lure, FIG. 5
Description: The exterior surface 2 was covered with cloth, the cloth being attached by masking tape, to form a climbing surface. Precipice 3 was formed by the outer edge of the dog dish. Interior surface 4 was formed by the underside of the outer rim of the dog dish which faces upward when the dog dish is turned upside down. Receptacle 5 was formed along the inside of the precipice 3 by the interior surface 4 and the retaining surface 6, effectively forming a capture moat area. The retaining surface 6 was formed by the underside of the inner bowl walls of the dog dish. Center stage 7 was formed by the underside of the bowl portions of the dog dish. The trap 1 was positioned on the floor of an apartment building known to be infested by bed bugs. Referring to the chronological chart of FIG. 5, the trap 1 was initially loaded with a heat blanket (heat source 8) alone. The heat blanket generated temperatures of 44.8 to 47.3 degrees Celsius (112.6 to 117.1 degrees Fahrenheit). The trap 1 with heat source 8 was tested for 14 days. The trap 1 was then loaded with an octenol lure in addition to the heat source 8, but excluding lactic acid. The heat blanket again generated heat. The trap 1 was then loaded with an octenol and L-lactic acid lure as described above, in place of the octenol lure. The heat blanket again generated heat.

## O=C=O [carbon dioxide source 9, carbon dioxide]
[1]; carbon dioxide 500 ml/min alone, Test 4 of FIG. 7
  number of bed bugs caught, times the control (trap only): ~3 times
[1]; heat source plus carbon dioxide 500 ml/min, Test 3 of FIG. 7
  number of bed bugs caught, times the control test (trap only): ~4 times

## C=CC(O)CCCCC (stereo not shown) [octenol lure, 1-octen-3-ol]
[2]
  mean trap count compared with other traps: less effective results than heat alone
[3]
  bed bugs caught compared with control test (trap with heat source alone): caught more bugs
